These results are taken from patent US10450299B2, “Substituted quinazoline derivatives as DNA methyltransferase inhibitors” (Pierre Fabre Medicament, priority 2015, dated 2019).

SMILES strings stand for the structures.

Data set [1] deals with luciferase reporter gene under the control of the partially methylated CMV promoter in KG-1 cell line. As to the kind of experiment: Gene expression (CMV-Luc reactivation) in KG-1 cells. Particulars: 24 h, induction factor vs DMSO control, mean of 3 experiments ± standard error; for Reactivation fold of luciferase gene reporter, 0.1 μM: compound at 0.1 μM; for Reactivation fold of luciferase gene reporter, 1 μM: compound at 1 μM; for Reactivation fold of luciferase gene reporter, 5 μM: compound at 5 μM; for Reactivation fold of luciferase gene reporter, 10 μM: compound at 10 μM. The format is cell-based, human. On the procedure:
Gene Expression. (CMV-Luc Reactivation)
KG-1 cell line, stably transfected with the luciferase Firefly (Luc+ from pGL3 by Promega) reporter gene under the control of the CMV promoter (from pEGFP-N1 by Clontech) partially methylated (50%), is seeded at 20,000 cell per well in 96-well plate. After 24 h of incubation in the presence of the compounds or the solvant DMSO, the induction of the promoter is measured by quantification of luciferase with the Brite-lite™ assay system (Perkin Elmer) according to the manufacturer protocol. The luminescence is measured on EnVision™ Multilabel Plate Reader (Perkin Elmer) and the data are expressed in induction factor compared to the DMSO control condition.

The target in data set [2] is T1, His-DNMT1 (182 kDa, human) (Homo sapiens, UniProt P26358).
T1 construct: His; made in house
As to the kind of experiment: DNMT1 assay (tritiated SAM Flashplate methylation assay). The data set is classed as biochemical. The conditions noted are these: for inhibition at 10 µM: compound at 10 μM; for inhibition at 32 µM: compound at 32 μM. On the procedure:
His-DNMT1 (182 kDa, human) was cloned, expressed and purified as described in Halby et al. (ChemBioChem 2012, 13, 157-65). The reaction was performed in a 10 μL total reaction volume in low volume NBS™ 384-well microplates (Corning), containing the tested compound (up to 1% DMSO), 1 μM of a SAM/[methyl-^3H] SAM (3 TBq/mmol, PerkinElmer) mix in a ratio of 3-to-1 (isotopic dilution 1*:3), 0.3 μM of biotinylated hemimethylated DNA duplex (5′-GATmCGCmCGATGmCGmCGAATmCGmCGATmCGATGmCGAT-3′ and BIOT-5′-[…]-3′), and 90 nM of DNMT1 in methylation buffer (20 mM HEPES pH 7.2, 1 mM EDTA, 50 mM KCl, 25 μg/mL BSA). The reaction was incubated at 37° C. for 2 hours. 8 μL are then transferred into a streptavidin 96-well scintillant coated Flashplate™ (PerkinElmer) containing 190 μL of 20 μM SAH in 50 mM Tris-HCl pH 7.4. The Flashplate™ was agitated at room temperature for 1 hour, washed three times with 200 μL of 0.05% Tween®-20 in 50 mM Tris-HCl pH 7.4, and read in 200 μL of 50 mM Tris-HCl pH 7.4 on TopCount NXT™ (PerkinElmer).

Data set [3] relates to KG-1 human leukemia cells. Nature of the data set: Anti-proliferative activity on KG-1 (ATPLite cell viability). Particulars: KG-1 cells; for inhibition at 0.1 µM: compound at 0.1 μM, read-out: % proliferation inhibition 0.1 μM; for inhibition at 1 µM: compound at 1 μM, read-out: % proliferation inhibition 1 μM; for inhibition at 5 µM: compound at 5 μM, read-out: % proliferation inhibition 5 μM; for inhibition at 10 µM: compound at 10 μM, read-out: % proliferation inhibition 10 μM. The data set is classed as cell-based. On the procedure:
Anti-Proliferative Activity. (on KG-1)
KG-1 human leukemia cells were obtained from the ATCC (USA) and cultivated in RPMI 1640 medium (with HEPES and Glutamine, BE12-115F, Lonza, France) supplemented with, respectively, 20% and 15% foetal calf serum (Lonza, France), at 37° C. and under 5% CO2. To measure the anti-proliferative properties of tested molecules, 2×10^4 cells are seeded at day 0 in a 96 wells plate. The compounds to be tested, stored at −20° C. as 10^−2 M stock solution in 100% DMSO, are freshly diluted on day 1 in RPMI 1640 medium, before adding a dose range of 3.2 nM to 10 μM to the cells. This treatment is repeated on day 2 and 3, and on day 4 cell viability is assessed using the ATPLite™ kit from Perkin (ATPlite™ 1 Step Luminescence Assay System, ref 3016739), following the provider instructions. The raw data are analyzed with GraphPad Prism software (v4.03) to generate EC50 values corresponding to the compound concentrations giving 50% reduction in cell viability. The values presented are the mean results of at least two independent experiments. […]
At the end of the experiment, cell viability was evaluated by determining the level of ATP released by viable cells.
EC50 values were determined with curve fitting analysis method (non linear regression model with a sigmoid dose response, variable Hill slope coefficient) provided by the Prism Software (GraphPad). Results were expressed as average EC50 values (concentration of tested compound that inhibits 50% of the maximum effect for the considered compound).
On the technique in general: Cellular ATP, detected with luciferase, serves as a proxy for viable cell number.

The target of data set [4] is T2, human C-terminal DNMT3A (a.a. 623-908) (Homo sapiens, UniProt Q9Y6K1).
T2 construct: The human C-terminal DNMT3A (a.a. 623-908); made in house
As to the kind of experiment: DNMT3A assay (restriction-based fluorescence assay). The data set is classed as biochemical. Particulars: for inhibition at 1 µM: compound at 1 μM; for inhibition at 3.2 µM: compound at 3.2 μM. An excerpt: DNMT3A enzyme inhibition was adapted from the restriction-based fluorescence assay protocol described in Ceccaldi et al. (ChemBioChem 2011, 12, 1337-45). Briefly, a 5′-labelled biotin oligonucleotide is hybridized to its complementary strand labelled with 6-carboxyfluorescein at the 3′-end into a 384 well microplate (black Optiplates; Perkin Elmer) pre-coated with avidin. The duplex contains a unique CpG site overlapping with a restriction site of a methylation sensitive restriction enzyme. The human C-terminal DNMT3A (a.a. 623-908), produced as described in Gros et al. (Nucleic Acids Research 2013 41(19):e185), was added in each well (200 ng/well) and mixed with the chemical compounds at desired concentrations and freshly prepared AdoMet (20 μM final concentration) to start the reaction in a total volume of 50 μL. After 1 hour incubation at 37° C. each well were washed three times with PBS, Tween-20 0.05%, NaCl (500 mM) and three more times with PBST. Specific fluorescent signals were detected with the methylation-sensitive restriction enzyme HpyCH4IV (NEB) as described and measured on a Perkin Elmer Envision detector. The percentage of inhibition is reported. The formula used to calculate the percentage of inhibition is [(X−Y)/X]×100, where X is the signal determined in the absence of the inhibitor and Y is the signal obtained in the presence of the inhibitor. The concentration at which 50% of efficacy of inhibition is observed (EC50) was determined by analysis of a concentration range of the tested compound in triplicates. The non-linear regression fittings with sigmoidal dose-response (variable slope) were performed with GraphPad Prism 4.03 (GraphPad Software).

T1 sequence (P26358 whole entry): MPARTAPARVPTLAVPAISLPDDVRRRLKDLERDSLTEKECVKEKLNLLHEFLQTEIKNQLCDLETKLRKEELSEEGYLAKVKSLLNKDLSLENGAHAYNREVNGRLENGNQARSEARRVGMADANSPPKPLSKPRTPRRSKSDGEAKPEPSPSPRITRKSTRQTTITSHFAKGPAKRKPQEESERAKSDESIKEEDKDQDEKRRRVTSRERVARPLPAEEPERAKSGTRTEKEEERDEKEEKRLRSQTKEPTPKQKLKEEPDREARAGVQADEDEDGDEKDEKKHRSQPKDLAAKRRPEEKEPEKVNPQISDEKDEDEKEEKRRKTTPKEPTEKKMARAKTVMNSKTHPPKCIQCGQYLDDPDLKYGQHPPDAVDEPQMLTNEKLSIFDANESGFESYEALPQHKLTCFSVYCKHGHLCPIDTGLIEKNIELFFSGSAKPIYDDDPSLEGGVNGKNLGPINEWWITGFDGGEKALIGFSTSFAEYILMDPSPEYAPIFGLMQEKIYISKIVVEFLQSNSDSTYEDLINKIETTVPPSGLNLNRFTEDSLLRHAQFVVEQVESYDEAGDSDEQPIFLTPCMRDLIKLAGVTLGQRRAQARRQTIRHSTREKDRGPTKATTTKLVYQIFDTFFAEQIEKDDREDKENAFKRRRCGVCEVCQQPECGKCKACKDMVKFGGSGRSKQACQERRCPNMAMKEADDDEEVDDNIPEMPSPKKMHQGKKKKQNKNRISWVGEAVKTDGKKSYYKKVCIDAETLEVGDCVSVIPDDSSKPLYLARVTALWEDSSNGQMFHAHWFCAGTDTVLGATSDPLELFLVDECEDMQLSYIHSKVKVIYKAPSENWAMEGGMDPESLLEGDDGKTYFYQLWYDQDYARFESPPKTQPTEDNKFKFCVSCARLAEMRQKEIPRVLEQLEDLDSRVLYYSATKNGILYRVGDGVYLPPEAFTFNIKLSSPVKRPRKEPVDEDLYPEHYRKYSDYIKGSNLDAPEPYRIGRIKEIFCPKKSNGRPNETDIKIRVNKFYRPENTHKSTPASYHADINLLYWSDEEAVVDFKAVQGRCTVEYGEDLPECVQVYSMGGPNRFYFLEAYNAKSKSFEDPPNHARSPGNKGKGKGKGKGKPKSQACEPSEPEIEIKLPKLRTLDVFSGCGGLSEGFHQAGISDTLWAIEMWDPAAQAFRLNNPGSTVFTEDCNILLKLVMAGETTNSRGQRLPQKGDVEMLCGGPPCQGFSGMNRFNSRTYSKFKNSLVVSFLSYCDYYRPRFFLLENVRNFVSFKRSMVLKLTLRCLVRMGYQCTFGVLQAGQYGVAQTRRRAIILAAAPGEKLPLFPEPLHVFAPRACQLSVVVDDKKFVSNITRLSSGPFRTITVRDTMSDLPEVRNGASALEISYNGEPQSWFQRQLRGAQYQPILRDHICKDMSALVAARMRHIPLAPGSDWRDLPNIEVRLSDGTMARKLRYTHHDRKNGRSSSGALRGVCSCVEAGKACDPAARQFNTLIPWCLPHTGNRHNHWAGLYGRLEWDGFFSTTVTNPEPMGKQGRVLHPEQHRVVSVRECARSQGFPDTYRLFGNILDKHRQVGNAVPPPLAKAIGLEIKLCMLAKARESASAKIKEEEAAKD
T2 sequence (Q9Y6K1 627-912): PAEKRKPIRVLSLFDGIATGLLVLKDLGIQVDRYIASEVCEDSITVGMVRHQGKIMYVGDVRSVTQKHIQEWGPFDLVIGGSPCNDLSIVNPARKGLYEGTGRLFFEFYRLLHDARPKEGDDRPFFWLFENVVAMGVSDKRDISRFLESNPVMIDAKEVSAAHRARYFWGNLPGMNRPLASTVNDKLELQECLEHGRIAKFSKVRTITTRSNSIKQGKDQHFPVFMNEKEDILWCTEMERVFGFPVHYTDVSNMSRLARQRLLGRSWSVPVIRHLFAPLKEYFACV

A word on the melting point: it is the temperature, or range, at which the solid turns liquid. In general, EC50 refers to the concentration that produces a half-maximal response. A higher EC50 goes with lower potency in that assay. In turn, `c1ccc(CN2CCC(Nc3nc(N4CCN(c5ccccc5)CC4)nc4cc(OCC5CCN(CCNc6ccnc7ccccc67)CC5)ccc34)CC2)cc1` [Compound G, N-(1-benzylpiperidin-4-yl)-2-(4-phenylpiperazin-1-yl)-7-((1-(2-(quinolin-4-ylamino)ethyl)piperidin-4-yl)methoxy)quinazolin-4-amine] returned a melting point of 122 to 124 °C. In data set [1], the “Reactivation fold of luciferase gene reporter, 0.1 μM” value is reported as 1.1 ± 0.0 fold; the “Reactivation fold of luciferase gene reporter, 1 μM” value was found to be 5.3 ± 0.4 fold; the “Reactivation fold of luciferase gene reporter, 5 μM” value is 0.2 ± 0.1 fold; the “Reactivation fold of luciferase gene reporter, 10 μM” value came to 0.0 ± 0.0 fold. Further, in data set [2], the EC50 came out at 10 µM, the inhibition at 10 µM was found to be 54% and the inhibition at 32 µM amounted to 100%. For the same molecule, in data set [3], the inhibition at 0.1 µM was -2.2%, the inhibition at 1 µM was 32.2%, the inhibition at 5 µM came to 99.6% and the inhibition at 10 µM turned out to be 99.8%. Further, in data set [4], the inhibition at 1 µM was found to be 57% and the inhibition at 3.2 µM is 95%.
Molecule `COc1cc2c(NC3CCN(Cc4ccccc4)CC3)nc(N3CCN(c4ccccc4)CC3)nc2cc1OCC1CCN(CCNc2ccnc3ccccc23)CC1` [E, N-(1-benzylpiperidin-4-yl)-6-methoxy-2-(4-phenylpiperazin-1-yl)-7-((1-(2-(quinolin-4-ylamino)ethyl)piperidin-4-yl)methoxy)quinazolin-4-amine] showed a melting point of 124 to 126 °C. In data set [1], the “Reactivation fold of luciferase gene reporter, 0.1 μM” value stood at 1.1 ± 0.0 fold; the “Reactivation fold of luciferase gene reporter, 1 μM” value is reported as 3.5 ± 0.0 fold; the “Reactivation fold of luciferase gene reporter, 5 μM” value came out at 1.3 ± 1.2 fold; the “Reactivation fold of luciferase gene reporter, 10 μM” value was 0.0 ± 0.0 fold. In addition, in data set [2], the midpoint of the response, the EC50, lay at 10 µM; the inhibition at 10 µM worked out at 59%; the inhibition at 32 µM turned out to be 100%. In data set [3] (96 h, treatment on days 1-3, viability on day 4 (ATPLite)), this molecule had an EC50 of 2.5 µM. In addition, in data set [3], the inhibition at 0.1 µM is -2.3%, the inhibition at 1 µM worked out at 15.4%, the inhibition at 5 µM amounted to 92.1% and the inhibition at 10 µM turned out to be 99.8%. In addition, in data set [4], the 50% effective concentration (EC50) was found to be 600 nM, the inhibition at 1 µM came to 74% and the inhibition at 3.2 µM turned out to be 100%.
